Measurements from ChEMBL document CHEMBL1201862, “PubChem BioAssay data set” (2004).
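48-hour exposure; five concentrations; linearly interpolated endpoints. Here, GI50 denotes the concentration required for 50% inhibition of growth.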 The source made the active and inactive calls. Rule as the data show it: active = GI50 up to about 1.1 µM and inactive = higher.

Key:
Assay in all cases: NCI tumour cell line growth inhibition, 48 h
OVCAR-4 = tested on: OVCAR-4
T47D = tested on: T47D
HOP-62 = tested on: HOP-62
SR = tested on: SR
786-0 = tested on: 786-0
Malme-3M = tested on: Malme-3M
U-251 = tested on: U-251
KM12 = tested on: KM12
MOLT-4 = tested on: MOLT-4
UACC-257 = tested on: UACC-257
MDA-MB-231 = tested on: MDA-MB-231
SNB-19 = tested on: SNB-19
HT-29 = tested on: HT-29
PC-3 = tested on: PC-3
TK-10 = tested on: TK-10
BT-549 = tested on: BT-549
EKVX = tested on: EKVX
Hs-578T = tested on: Hs-578T
HCC 2998 = tested on: HCC 2998

Measured: GI50

O=C1c2cccc([N+](=O)[O-])c2C(=O)N1c1ncn[nH]1
inactive: OVCAR-4 > 100 µM | T47D > 100 µM | HOP-62 38.9 µM | SR > 100 µM | 786-0 58.1 µM | Malme-3M > 100 µM | U-251 38.6 µM | KM12 > 100 µM | MOLT-4 > 100 µM | UACC-257 > 100 µM | MDA-MB-231 56.6 µM | SNB-19 29.7 µM | HT-29 > 100 µM | PC-3 > 100 µM | TK-10 27.2 µM | BT-549 28.2 µM | EKVX 53 µM | Hs-578T 36.4 µM

CC(=O)NC(Cc1c[nH]c2ccccc12)C(=O)O (centres undefined)
inactive: OVCAR-4 > 100 µM | T47D > 100 µM | HOP-62 > 100 µM | SR > 100 µM | 786-0 > 100 µM | Malme-3M > 100 µM | U-251 > 100 µM | KM12 > 100 µM | UACC-257 26.2 µM | MDA-MB-231 > 100 µM | SNB-19 > 100 µM | HT-29 > 100 µM | PC-3 > 100 µM | TK-10 > 100 µM | BT-549 > 100 µM | EKVX > 100 µM | Hs-578T > 100 µM

COc1ccc(C2SC(=N)Nc3c2c(C)nn3C(=O)c2ccc(Cl)cc2)cc1 (centres undefined)
inactive: HCC 2998 > 10 µM | OVCAR-4 > 10 µM | T47D > 10 µM | HOP-62 > 10 µM | 786-0 > 10 µM | Malme-3M > 10 µM | U-251 > 10 µM | KM12 > 10 µM | MOLT-4 > 10 µM | UACC-257 > 10 µM | MDA-MB-231 > 10 µM | SNB-19 > 10 µM | HT-29 > 10 µM | PC-3 > 10 µM | TK-10 > 10 µM | BT-549 > 10 µM | EKVX > 10 µM | Hs-578T > 10 µM

Nc1nc(N)c2ncn(-c3ccc(Cl)c(Cl)c3)c2n1
inactive: HCC 2998 27.4 µM | OVCAR-4 33.3 µM | T47D 42.1 µM | HOP-62 29.6 µM | 786-0 14.1 µM | Malme-3M 17.9 µM | U-251 25.9 µM | KM12 25.4 µM | MOLT-4 12.2 µM | UACC-257 27.4 µM | MDA-MB-231 23.1 µM | SNB-19 57 µM | HT-29 22.2 µM | PC-3 24.1 µM | TK-10 16.7 µM | BT-549 21.9 µM | EKVX 25.5 µM | Hs-578T 15 µM

CCOC(=O)c1nc2ccc(C(F)(F)F)cc2nc1NCc1ccc(OC)cc1
inactive: OVCAR-4 63.7 µM | T47D 80.7 µM | HOP-62 98.9 µM | SR 28.2 µM | 786-0 > 100 µM | Malme-3M 34.4 µM | U-251 > 100 µM | KM12 36 µM | MOLT-4 31.3 µM | UACC-257 74 µM | MDA-MB-231 > 100 µM | SNB-19 > 100 µM | HT-29 55.8 µM | PC-3 56.6 µM | TK-10 71.6 µM | BT-549 60.4 µM | EKVX > 100 µM | Hs-578T 99.5 µM
